# In US20240208968A1, “ALPHA V BETA 6 AND ALPHA V BETA 1 INTEGRIN INHIBITORS AND USES THEREOF” (DiCE Molecules SV, Inc., priority 2021, published 2024):
# Counter-ions that a name gives are not always drawn.
# What was measured:
# αvβ6 = αvβ6 (Homo sapiens, UniProt P06756+P18564); assay: Solid Phase Integrin αvβ6 Assay; assay type: binding
# Protocol: (§1) The compounds exemplified in this document were tested for their ability to inhibit αvβ1 and αvβ6 in below described solid phase integrin assays.
# Solid Phase Integrin αvβ6 Assay
# 96-well microtiter plates (4 HBX Immulon; Thermo Fisher Scientific, Waltham, MA) were coated with 100 μL/well of 1 μg/mL recombinant TGFb1-LAP in TBS at 4° C., overnight. The coating solution was removed, and plates were blocked with 200 μL/well of blocking and binding buffer (2% BSA/TBST, 1 mM MnCl2) at room temperature for 1 hr. Blocking buffer was removed and 50 uL of binding buffer and testing compounds were added. 50 μL of diluted αvβ6 (0.2 μg/mL in binding buffer) was added to wells (100 uL/well total) and plates incubated for 1 hr at room temperature. Wells were washed thrice with washing buffer (TBS, 0.05% Tween, 1 mM MnCl2) and plates were incubated with 100 μL/well of a 1:12500) dilution of streptavidin-horseradish peroxidase conjugate (Thermo Fisher Scientific) in binding buffer for 20 min at room temperature. Bound protein was detected using the substrate TMB. The IC50 values for testing compounds were calculated by Levenberg-Marquardt four parameter fitting logistics.
# αvβ1 = αvβ1 (Homo sapiens, UniProt P05556+P06756); assay: Solid Phase Integrin αvβ1 Assay; assay type: binding
# Protocol: as §1
# Solid Phase Integrin αvβ1 Assay
# 96-well microtiter plates (4 HBX Immulon; Thermo Fisher Scientific, Waltham, MA) were coated with 100 μL/well of 1 μg/mL recombinant TGFb1-LAP in TBS at 4° C., overnight. The coating solution was removed, and plates were blocked with 200 μL/well of blocking and binding buffer (2% BSA/TBST, 1 mM MnCl2) at room temperature for 1 hr. Blocking buffer was removed and 50 μL of binding buffer and testing compounds were added. 50 μL of diluted αvβ1 (0.2 ug/mL in binding buffer) was added to wells (100 μL/well total) for and plates incubated for 90 min at room temperature. Wells were washed thrice with washing buffer (TBS, 0.05% Tween, 1 mM MnCl2) and plates were incubated with 100 μL/well of a 1:12500 dilution of streptavidin-horseradish peroxidase conjugate (Thermo Fisher Scientific) in binding buffer for 20 min at room temperature. Bound protein was detected using the substrate TMB. The IC50 values for testing compounds were calculated by Levenberg-Marquardt four parameter fitting logistics.
# Sequence of αvβ6 (P06756 31-992 limits assumed): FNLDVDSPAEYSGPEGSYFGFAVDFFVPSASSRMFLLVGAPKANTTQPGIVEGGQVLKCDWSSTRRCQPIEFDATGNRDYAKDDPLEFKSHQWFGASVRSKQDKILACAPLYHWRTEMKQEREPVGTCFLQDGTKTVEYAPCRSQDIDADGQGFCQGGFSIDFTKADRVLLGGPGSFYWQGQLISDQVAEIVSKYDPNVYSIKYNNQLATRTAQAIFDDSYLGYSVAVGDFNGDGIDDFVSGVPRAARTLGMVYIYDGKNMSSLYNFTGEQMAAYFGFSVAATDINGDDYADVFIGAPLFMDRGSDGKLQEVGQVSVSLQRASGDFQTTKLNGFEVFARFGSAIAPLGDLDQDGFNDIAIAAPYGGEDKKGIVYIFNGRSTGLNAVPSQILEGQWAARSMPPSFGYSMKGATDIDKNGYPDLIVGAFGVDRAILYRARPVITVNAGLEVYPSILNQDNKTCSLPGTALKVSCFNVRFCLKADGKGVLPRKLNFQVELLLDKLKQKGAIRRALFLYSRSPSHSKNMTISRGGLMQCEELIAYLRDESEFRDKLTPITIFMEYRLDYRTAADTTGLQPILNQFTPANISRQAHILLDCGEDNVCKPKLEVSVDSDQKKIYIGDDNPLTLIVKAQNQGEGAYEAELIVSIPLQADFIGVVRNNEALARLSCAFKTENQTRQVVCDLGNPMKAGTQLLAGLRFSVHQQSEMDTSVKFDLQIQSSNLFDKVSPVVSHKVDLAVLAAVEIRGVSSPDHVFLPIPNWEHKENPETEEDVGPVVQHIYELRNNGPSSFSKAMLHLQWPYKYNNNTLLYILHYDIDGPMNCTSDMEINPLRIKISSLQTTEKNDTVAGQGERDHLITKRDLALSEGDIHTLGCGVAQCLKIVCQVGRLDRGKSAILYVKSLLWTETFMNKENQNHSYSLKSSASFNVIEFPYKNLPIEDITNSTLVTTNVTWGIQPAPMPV
# Sequence of αvβ6 (P18564 22-707 limits assumed): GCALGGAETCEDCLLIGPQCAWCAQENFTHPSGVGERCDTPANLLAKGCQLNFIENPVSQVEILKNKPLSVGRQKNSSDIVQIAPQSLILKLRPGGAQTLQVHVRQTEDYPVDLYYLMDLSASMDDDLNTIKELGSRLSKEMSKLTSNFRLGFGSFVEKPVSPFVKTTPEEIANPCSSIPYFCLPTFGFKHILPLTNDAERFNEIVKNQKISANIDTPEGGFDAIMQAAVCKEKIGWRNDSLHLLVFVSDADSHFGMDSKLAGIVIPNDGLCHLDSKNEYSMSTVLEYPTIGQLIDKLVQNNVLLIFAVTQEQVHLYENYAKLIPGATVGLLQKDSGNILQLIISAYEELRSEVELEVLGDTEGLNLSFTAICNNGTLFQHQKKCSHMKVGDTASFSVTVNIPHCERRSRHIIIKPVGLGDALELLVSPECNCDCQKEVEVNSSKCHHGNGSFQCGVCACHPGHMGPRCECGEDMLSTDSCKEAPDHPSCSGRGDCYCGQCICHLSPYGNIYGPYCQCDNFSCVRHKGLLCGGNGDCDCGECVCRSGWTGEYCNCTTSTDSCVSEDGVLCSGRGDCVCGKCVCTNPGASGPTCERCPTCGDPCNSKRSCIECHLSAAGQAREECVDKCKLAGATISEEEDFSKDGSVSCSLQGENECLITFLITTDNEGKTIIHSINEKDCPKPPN
# Sequence of αvβ1 (P06756 31-992 limits assumed): as the sequence (P06756 31-992 limits assumed) above
# Sequence of αvβ1 (P05556 21-728 limits assumed): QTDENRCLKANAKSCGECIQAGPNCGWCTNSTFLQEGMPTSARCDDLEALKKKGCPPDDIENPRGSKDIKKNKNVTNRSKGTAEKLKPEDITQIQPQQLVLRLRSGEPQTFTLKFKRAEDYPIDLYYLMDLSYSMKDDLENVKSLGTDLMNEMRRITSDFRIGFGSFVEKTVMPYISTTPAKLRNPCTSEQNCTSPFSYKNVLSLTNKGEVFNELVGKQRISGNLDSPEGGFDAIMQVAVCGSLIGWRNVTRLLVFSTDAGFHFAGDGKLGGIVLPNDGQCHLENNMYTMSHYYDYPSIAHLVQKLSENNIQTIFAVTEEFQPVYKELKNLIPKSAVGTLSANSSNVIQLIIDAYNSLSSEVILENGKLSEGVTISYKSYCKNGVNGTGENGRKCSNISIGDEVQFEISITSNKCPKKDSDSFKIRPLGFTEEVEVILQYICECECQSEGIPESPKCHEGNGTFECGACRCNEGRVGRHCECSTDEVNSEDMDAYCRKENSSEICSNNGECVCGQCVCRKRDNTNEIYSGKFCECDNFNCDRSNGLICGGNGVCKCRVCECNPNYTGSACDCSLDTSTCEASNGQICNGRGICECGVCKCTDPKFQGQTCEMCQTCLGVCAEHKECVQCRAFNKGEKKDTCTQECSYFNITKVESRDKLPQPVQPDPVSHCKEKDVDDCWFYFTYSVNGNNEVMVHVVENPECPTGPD
SMILES,IC50 (αvβ6),IC50 (αvβ1)
"O=C(O)C[C@@H](NC(=O)[C@@H]1CCCN(CCCc2ccc3c(n2)NCCC3)C1)c1cccc(Oc2ccccc2)c1 [Compound 209-B, 3-(3-phenoxyphenyl)-3-((R)-1-(3-(5,6,7,8-tetrahydro-1,8-naphthyridin-2-yl)propyl)piperidine-3-carboxamido)propanoic acid]",100 to 1000 nM,> 1000 nM
"COc1ccc(C(C)C)c(C(CC(=O)O)NC(=O)[C@@H]2CCCN(CCCc3ccc4c(n3)NCCC4)C2)c1 (stereo partly drawn) [Compound 210, 3-(2-isopropyl-5-methoxyphenyl)-3-((R)-1-(3-(5,6,7,8-tetrahydro-1,8-naphthyridin-2-yl)propyl)piperidine-3-carboxamido)propanoic acid hydrochloride]",100 to 1000 nM,100 to 1000 nM
"O=C(O)C[C@H](NC(=O)[C@@H]1CCCN(CCCc2ccc3c(n2)NCCC3)C1)c1cccc2c1CCC2 [Compound 211-A, 3-(2,3-dihydro-1H-inden-4-yl)-3-((R)-1-(3-(5,6,7,8-tetrahydro-1,8-naphthyridin-2-yl)propyl)piperidine-3-carboxamido)propanoic acid]",< 100 nM,< 100 nM
"O=C(O)C[C@@H](NC(=O)[C@@H]1CCCN(CCCc2ccc3c(n2)NCCC3)C1)c1cccc2c1CCC2 [Compound 211-B, 3-(2,3-dihydro-1H-inden-4-yl)-3-((R)-1-(3-(5,6,7,8-tetrahydro-1,8-naphthyridin-2-yl)propyl)piperidine-3-carboxamido)propanoic acid]",100 to 1000 nM,> 1000 nM
"O=C(O)C[C@H](NC(=O)[C@@H]1CCCN(CCCc2ccc3c(n2)NCCC3)C1)c1cccc2c1CCCC2 [Compound 212-A, 3-((R)-1-(3-(5,6,7,8-tetrahydro-1,8-naphthyridin-2-yl)propyl)piperidine-3-carboxamido)-3-(5,6,7,8-tetrahydronaphthalen-1-yl)propanoic acid]",> 1000 nM,> 1000 nM
"O=C(O)C[C@@H](NC(=O)[C@@H]1CCCN(CCCc2ccc3c(n2)NCCC3)C1)c1cccc2c1CCCC2 [Compound 212-B, 3-((R)-1-(3-(5,6,7,8-tetrahydro-1,8-naphthyridin-2-yl)propyl)piperidine-3-carboxamido)-3-(5,6,7,8-tetrahydronaphthalen-1-yl)propanoic acid]",< 100 nM,100 to 1000 nM
"O=C(O)CC(NC(=O)[C@@H]1CCCN(CCCc2ccc3c(n2)NCCC3)C1)c1ccc2c(c1)CCO2 (stereo partly drawn) [Compound 213, 3-(2,3-dihydrobenzofuran-5-yl)-3-((R)-1-(3-(5,6,7,8-tetrahydro-1,8-naphthyridin-2-yl)propyl)piperidine-3-carboxamido)propanoic acid hydrochloride]",< 100 nM,< 100 nM
"O=C(O)C[C@H](NC(=O)[C@@H]1CCCN(CCCc2ccc3c(n2)NCCC3)C1)c1ccc2c(c1)OCO2 [Compound 214, (S)-3-(benzo[d][1,3]dioxol-5-yl)-3-((R)-1-(3-(5,6,7,8-tetrahydro-1,8-naphthyridin-2-yl)propyl)piperidine-3-carboxamido)propanoic acid]",< 100 nM,< 100 nM
"O=C(O)C[C@H](NC(=O)[C@@H]1CCCN(CCCc2ccc3c(n2)NCCC3)C1)c1ccc2nccnc2c1 [Compound 215-A, 3-(quinoxalin-6-yl)-3-((R)-1-(3-(5,6,7,8-tetrahydro-1,8-naphthyridin-2-yl)propyl)piperidine-3-carboxamido)propanoic acid]",< 100 nM,< 100 nM
"O=C(O)C[C@@H](NC(=O)[C@@H]1CCCN(CCCc2ccc3c(n2)NCCC3)C1)c1ccc2nccnc2c1 [Compound 215-B, 3-(quinoxalin-6-yl)-3-((R)-1-(3-(5,6,7,8-tetrahydro-1,8-naphthyridin-2-yl)propyl)piperidine-3-carboxamido)propanoic acid]",< 100 nM,< 100 nM
"O=C(O)C[C@H](NC(=O)[C@@H]1CCCN(CCCc2ccc3c(n2)NCCC3)C1)c1cccc2c1CCCO2 [Compound 216-A, 3-(chroman-5-yl)-3-((R)-1-(3-(5,6,7,8-tetrahydro-1,8-naphthyridin-2-yl)propyl)piperidine-3-carboxamido)propanoic acid]",< 100 nM,100 to 1000 nM

# Next, values leading:
IC50 (αvβ6),IC50 (αvβ1),SMILES
> 1000 nM,> 1000 nM,"O=C(O)C[C@@H](NC(=O)[C@@H]1CCCN(CCCc2ccc3c(n2)NCCC3)C1)c1cccc2c1CCCO2 [Compound 216-B, 3-(chroman-5-yl)-3-((R)-1-(3-(5,6,7,8-tetrahydro-1,8-naphthyridin-2-yl)propyl)piperidine-3-carboxamido)propanoic acid]"
< 100 nM,< 100 nM,"O=C(O)CC(NC(=O)[C@@H]1CCCN(CCCc2ccc3c(n2)NCCC3)C1)c1ccc2c(c1)OCC2 (stereo partly drawn) [Compound 217, 3-(2,3-dihydrobenzofuran-6-yl)-3-((R)-1-(3-(5,6,7,8-tetrahydro-1,8-naphthyridin-2-yl)propyl)piperidine-3-carboxamido)propanoic acid hydrochloride]"
< 100 nM,< 100 nM,"O=C(O)CC(NC(=O)[C@@H]1CCCN(CCCc2ccc3c(n2)NCCC3)C1)c1cccc2c1OCO2 (stereo partly drawn) [Compound 218, 3-(benzo[d][1,3]dioxol-4-yl-3-((R)-1-(3-(5,6,7,8-tetrahydro-1,8-naphthyridin-2-yl)propyl)piperidine-3-carboxamido)propanoic acid hydrochloride]"
< 100 nM,< 100 nM,"O=C(O)CC(NC(=O)[C@@H]1CCCN(CCCc2ccc3c(n2)NCCC3)C1)c1cccc2c1CCO2 (stereo partly drawn) [Compound 219, 3-(2,3-dihydrobenzofuran-4-yl)-3-((R)-1-(3-(5,6,7,8-tetrahydro-1,8-naphthyridin-2-yl)propyl)piperidine-3-carboxamido)propanoic acid hydrochloride]"
< 100 nM,< 100 nM,"O=C(O)C[C@H](NC(=O)[C@@H]1CCCN(CCCc2ccc3c(n2)NCCC3)C1)c1cc(Cl)cc(Cl)c1 [Compound 220, (S)-3-(3,5-dichlorophenyl)-3-((R)-1-(3-(5,6,7,8-tetrahydro-1,8-naphthyridin-2-yl)propyl)piperidine-3-carboxamido)propanoic acid]"
< 100 nM,< 100 nM,"COc1ccc([C@H](CC(=O)O)NC(=O)[C@@H]2CCCN(CCCc3ccc4c(n3)NCCC4)C2)cn1 [Compound 221, (S)-3-(6-methoxypyridin-3-yl)-3-((R)-1-(3-(5,6,7,8-tetrahydro-1,8-naphthyridin-2-yl)propyl)piperidine-3-carboxamido)propanoic acid hydrochloride]"
< 100 nM,< 100 nM,"O=C(O)CC(NC(=O)[C@@H]1CCCN(CCCc2ccc3c(n2)NCCC3)C1)c1cc(Cl)cc(C(F)(F)F)c1 (stereo partly drawn) [Compound 222, 3-(3-chloro-5-(trifluoromethyl)phenyl)-3-((R)-1-(3-(5,6,7,8-tetrahydro-1,8-naphthyridin-2-yl)propyl)piperidine-3-carboxamido)propanoic acid hydrochloride]"
< 100 nM,< 100 nM,"O=C(O)CC(NC(=O)[C@@H]1CCCN(CCCc2ccc3c(n2)NCCC3)C1)c1cc(C(F)(F)F)cc(C(F)(F)F)c1 (stereo partly drawn) [Compound 223, 3-(3,5-bis(trifluoromethyl)phenyl)-3-((R)-1-(3-(5,6,7,8-tetrahydro-1,8-naphthyridin-2-yl)propyl)piperidine-3-carboxamido)propanoic acid formic acid]"
< 100 nM,< 100 nM,"O=C(O)C[C@H](NC(=O)[C@@H]1CCCN(CCCc2ccc3c(n2)NCCC3)C1)c1cccc(C2CC2)c1 [Compound 224, (S)-3-(3-Cyclopropylphenyl)-3-((R)-1-(3-(5,6,7,8-Tetrahydro-1,8-Naphthyridin-2-YI)Propyl)Piperidine-3-Carboxamido)Propanoic Acid hydrochloride]"
< 100 nM,< 100 nM,"Cc1cc(C)n(-c2cccc([C@H](CC(=O)O)NC(=O)[C@@H]3CCCN(CCCc4ccc5c(n4)NCCC5)C3)c2)n1 [Compound 225, (S)-3-(3-(3,5-dimethyl-1H-pyrazol-1-yl)phenyl)-3-((R)-1-(3-(5,6,7,8-tetrahydro-1,8-naphthyridin-2-yl)propyl)piperidine-3-carboxamido)propanoic acid hydrochloride]"
< 100 nM,< 100 nM,"Cc1cnn(C)c1-c1cccc([C@H](CC(=O)O)NC(=O)[C@@H]2CCCN(CCCc3ccc4c(n3)NCCC4)C2)c1 [Compound 226, (S)-3-(3-(1,4-dimethyl-1H-pyrazol-5-yl)phenyl)-3-((R)-1-(3-(5,6,7,8-tetrahydro-1,8-naphthyridin-2-yl)propyl)piperidine-3-carboxamido)propanoic acid hydrochloride]"
